Here are results for 5 compounds from patent US20260034092A1, “BIOCIDAL COMPOSITION” (priority 2022, published 2026).

Test [1] concerns Pseudomonas aeruginosa (ATCC 15442). The test is described as follows: Minimum Inhibitory Concentration (MIC) test. To be noted: incubated 48 h at 37° C.
Test [2] concerns bacterial Biofilm (Listeria monocytogenes ATCC 35152, Clostridium sporogenes ATCC 19404, Candida albicans ATCC 26555 and Escherichia col). The test is described as follows: MIC test against bacterial Biofilm. In kind it is cell-based. Conditions: incubated 48 h at 37° C.

For the compound `CC12CCC(CC1)C(C)(C)O2` [Eucalyptol, 1,3,3-Trimethyl-2-oxabicyclo[2.2.2]octane], the “Minimum inhibitory concentration (MIC)” value in test [1] is 1.09%; in test [2], 1.21%.

Turning to `CC1=CCC(O)(C(C)C)CC1` (stereo not shown) [Terpinen-4-ol, 4-Methyl-1-(propan-2-yl)cyclohex-3-en-1-ol], the figures for the “Minimum inhibitory concentration (MIC)” value in test [1] and in test [2] were 1.64% and 1.96%, respectively.

Take `CC1CCC(C(C)C)C(O)C1` (stereo not shown) [Menthol, 5-Methyl-2-(propan-2-yl)cyclohexan-1-ol]: the “Minimum inhibitory concentration (MIC)” value in test [1] turned out to be 5.32%; in test [2], 5.98%.

With `Cc1ccc(C(C)C)c(O)c1` [Thymol, 5-Methyl-2-(propan-2-yl) phenol], the “Minimum inhibitory concentration (MIC)” value in test [1] worked out at 2.11%; in test [2] it was 2.29%.

`Cc1ccc(C(C)C)cc1O` [Carvacrol, 5-Isopropil-2-metilfenol]: the “Minimum inhibitory concentration (MIC)” value in test [1] is listed as 0.89%; in test [2] it was 1.01%.
